# Reference: patent US11524966B1 (Valo Early Discovery, Inc., priority 2017, dated 2022)
# Target: T1, USP28 (His-tagged USP28-FL-mammalian) (Homo sapiens, UniProt Q96RU2)
# T1 construct: Expression of USP28 (1-1077)-TEV-6*His (pTT5 vector); made in house; host or cells: Expi293f cells (pTT5 vector)
# T1 sequence (Q96RU2 1-1077): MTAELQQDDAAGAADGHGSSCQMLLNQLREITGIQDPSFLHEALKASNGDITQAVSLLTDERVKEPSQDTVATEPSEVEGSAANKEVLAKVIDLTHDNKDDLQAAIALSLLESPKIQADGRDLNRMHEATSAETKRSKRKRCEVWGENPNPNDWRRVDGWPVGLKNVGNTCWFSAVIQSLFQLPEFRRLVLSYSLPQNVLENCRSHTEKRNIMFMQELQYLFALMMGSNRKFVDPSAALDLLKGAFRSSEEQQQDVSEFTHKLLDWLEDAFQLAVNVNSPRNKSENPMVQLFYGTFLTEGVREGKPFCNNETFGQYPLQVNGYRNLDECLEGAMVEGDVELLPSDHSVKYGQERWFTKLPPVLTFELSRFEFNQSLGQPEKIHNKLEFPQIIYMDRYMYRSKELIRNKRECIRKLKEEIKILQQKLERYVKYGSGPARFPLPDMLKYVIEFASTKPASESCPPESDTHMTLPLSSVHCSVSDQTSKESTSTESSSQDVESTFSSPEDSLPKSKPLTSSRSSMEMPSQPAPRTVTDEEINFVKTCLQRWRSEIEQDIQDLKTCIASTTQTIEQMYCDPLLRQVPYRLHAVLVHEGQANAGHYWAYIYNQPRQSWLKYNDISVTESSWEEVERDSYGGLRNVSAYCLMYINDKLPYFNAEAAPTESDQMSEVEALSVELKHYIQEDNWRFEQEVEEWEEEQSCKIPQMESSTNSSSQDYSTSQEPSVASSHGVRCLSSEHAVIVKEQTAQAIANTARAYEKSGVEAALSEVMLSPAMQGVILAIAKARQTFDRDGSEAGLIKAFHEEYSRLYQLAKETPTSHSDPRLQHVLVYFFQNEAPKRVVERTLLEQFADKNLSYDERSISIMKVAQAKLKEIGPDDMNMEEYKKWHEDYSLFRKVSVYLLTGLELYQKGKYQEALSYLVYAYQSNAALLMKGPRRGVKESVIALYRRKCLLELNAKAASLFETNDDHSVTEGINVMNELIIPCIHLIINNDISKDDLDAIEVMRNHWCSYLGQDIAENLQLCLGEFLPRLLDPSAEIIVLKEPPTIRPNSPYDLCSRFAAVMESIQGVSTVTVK
# Assay: Ubiquitin-Rhodamine 110 Assay for USP28 Activity, Example A-1(a)
# Assay type: biochemical
# Conditions: Ubiquitin-Rhodamine 110 assay, Example A-1(a); read-out: USP28 A-1(a) IC50 range
# Method: Example A-1(a): Biochemical Assay: Ubiquitin-Rhodamine 110 Assay for USP28 Activity
# The assay was performed in a final volume of 9 μL in assay buffer containing 20 mM Tris-HCl (pH 8.0, (1M Tris-HCl, pH 8.0 solution; Corning 46-031-CM)), 3 mM BME (2-Mercaptoethanol; Sigma 63689-25ML-F), 0.03% BGG (0.22 μM filtered, Sigma, G7516-25G), and 0.01% Triton X-100 (Sigma, T9284-10L). Nanoliter quantities of 10-point, 3-fold serial dilution in DMSO was pre-dispensed into 1536 assay plates (Corning, #3724BC) for a final test concentration of 25 μM to 1.3 nM, top to lowest dose, respectively. Enzyme USP28, construct His-tagged USP28-FL-mammalian, (protein expression and purification procedure described below). Concentration and incubation times were optimized for the maximal signal-to-background while maintaining initial velocity conditions at a fixed substrate concentration. The final concentration of the enzyme in the assay was 75 μM. Final substrate (Ub-Rh110; Ubiquitin-Rhodamine 110, UbiQ-126) concentration was 25 nM with [Ub-Rh110]<<Km. 3 μL of 2× enzyme was added to assay plates (pre-stamped with compound) preincubated with […] for 30 minutes and then 3 μL of 2×Ub-Rh110 was added to assay plates. Plates were incubated for 45 minutes at room temperature before addition of 3 μL of stop solution (final concentration of 10 mM citric acid (Sigma, 251275-500G)). Fluorescence was read on the Envision (Excitation at 485 nm and Emission at 535 nm; Perkin Elmer) or on the PheraSTAR (Excitation at 485 nm and Emission at 535 nm; BMG Labtech).
# Procedure for the Protein Expression and Purification for Construct His-Tagged USP28-FL-Mammalian
# Expression of USP28 (1-1077)-TEV-6*His (pTT5 vector) was carried out in Expi293f cells (sequence derived from uniprot ID: Q96RU2-1). Cells were re-suspended in lysis buffer B 50 mM Bicine, pH 8.0, 20 mM NaCl, 5% glycerol, 0.1% CHAPS, 5 mM β-ME, 1 mM PMSF, 1 ug/ml Leupeptin, 1 ug/ml Pepstatin) and lysed by sonication. Insoluble material was removed by centrifugation and the supernatant was loaded onto a Ni-NTA column (GE Healthcare) equilibrated with Ni Buffer A (50 mM Bicine, pH 8.0, 20 mM NaCl, 5% glycerol, 0.1% CHAPS, 5 mM β-ME.) and washed with Ni Buffer A+20 mM imidazole until A280 reached baseline. The protein was eluted with Ni Buffer B (50 mM Bicine, pH 8.0, 20 mM NaCl, 5% glycerol, 0.1% CHAPS, 5 mM β-ME, 300 mM imidazole.). The protein was further purified using a Superdex™ 200 10/300 GL column (GE Healthcare) equilibrated with 50 mM Bicine, pH 8.0, 20 mM NaCl, 5% glycerol, 0.1% CHAPS, 5 mM β-ME. The protein was concentrated to 2.5 mg ml^−1, flash-frozen in liquid N2 and stored at −80° C.
# For assay formats Example A-1(a), A-1(b), and A-2, data were reported as percent inhibition compared with control wells based on the following equation: % inh=1−((FLU−AveLow)/(AveHigh−AveLow)) where FLU=measured Fluorescence, AveLow=average Fluorescence of no enzyme control (n=16), and AveHigh=average Fluorescence of DMSO control (n=16). IC50 values were determined by curve fitting of the standard 4 parameter logistic fitting algorithm included in the Activity Base software package: IDBS XE Designer Model 205. Data is fitted using the Levenburg Marquardt algorithm.
row,SMILES,IC50
1,"Cc1ccc2c(N)c(C(=O)N[C@H]3CCc4nc(N5C[C@@H](N)[C@H](C(F)F)C5)ncc4C3)sc2n1 [Example 381, 3-amino-N-[(6S)-2-[(3S,4R)-3-amino-4-(difluoromethyl)pyrrolidin-1-yl]-5,6,7,8-tetrahydroquinazolin-6-yl]-6-methylthieno[2,3-b]pyridine-2-carboxamide]",200 to 2000 nM
2,"Cc1ccc2c(N)c(C(=O)N[C@@H]3CCc4nc(N5C[C@@H](N)[C@H](C(F)F)C5)ncc4C3)sc2n1 [Example 382, 3-amino-N-[(6R)-2-[(3S,4R)-3-amino-4-(difluoromethyl)pyrrolidin-1-yl]-5,6,7,8-tetrahydroquinazolin-6-yl]-6-methylthieno[2,3-b]pyridine-2-carboxamide]",200 to 2000 nM
3,"Cc1ccc2c(N)c(C(=O)N[C@@H]3CCc4nc(N5C[C@H](C(F)F)[C@@H](N)C5)ncc4C3)sc2n1 [Example 383, 3-amino-N-[(6R)-2-[(3R,4S)-3-amino-4-(difluoromethyl)pyrrolidin-1-yl]-5,6,7,8-tetrahydroquinazolin-6-yl]-6-methylthieno[2,3-b]pyridine-2-carboxamide]",> 2000 nM
4,"Cc1ccc2c(N)c(C(=O)N[C@H]3CCc4nc(N5C[C@H](CF)[C@@H](N)C5)ccc4C3)sc2n1 [Example 384, 3-amino-N-[(6S)-2-[(3R,4S)-3-amino-4-(fluoromethyl)pyrrolidin-1-yl]-5,6,7,8-tetrahydroquinolin-6-yl]-6-methylthieno[2,3-b]pyridine-2-carboxamide]",50 to 200 nM
5,"Cc1ccc2c(N)c(C(=O)N[C@H]3CCc4nc(N5C[C@@H](CF)[C@H](N)C5)ccc4C3)sc2n1 [Example 385, 3-amino-N-[(6S)-2-[(3S,4R)-3-amino-4-(fluoromethyl)pyrrolidin-1-yl]-5,6,7,8-tetrahydroquinolin-6-yl]-6-methylthieno[2,3-b]pyridine-2-carboxamide]",50 to 200 nM
6,"Cc1ccc2c(N)c(C(=O)N[C@H]3CCc4nc(N5CC[C@](N)(CO)C5)ccc4C3)sc2n1 [Example 386, 3-amino-N-[(6S)-2-[(3R)-3-amino-3-(hydroxymethyl)pyrrolidin-1-yl]-5,6,7,8-tetrahydroquinolin-6-yl]-6-methylthieno[2,3-b]pyridine-2-carboxamide]",50 to 200 nM
7,"Cc1ccc2c(N)c(C(=O)N[C@H]3CCc4nc(N5CC[C@@](N)(CO)C5)ccc4C3)sc2n1 [Example 387, 3-amino-N-[(6S)-2-[(3S)-3-amino-3-(hydroxymethyl)pyrrolidin-1-yl]-5,6,7,8-tetrahydroquinolin-6-yl]-6-methylthieno[2,3-b]pyridine-2-carboxamide]",50 to 200 nM
8,"COC[C@@]1(N)CCN(c2ccc3c(n2)CC[C@H](NC(=O)c2sc4nc(C)ccc4c2N)C3)C1 [Example 388, 3-amino-N-[(6S)-2-[(3R)-3-amino-3-(methoxymethyl)pyrrolidin-1-yl]-5,6,7,8-tetrahydroquinolin-6-yl]-6-methylthieno[2,3-b]pyridine-2-carboxamide]",50 to 200 nM
9,"COC[C@]1(N)CCN(c2ccc3c(n2)CC[C@H](NC(=O)c2sc4nc(C)ccc4c2N)C3)C1 [Example 389, 3-amino-N-[(6S)-2-[(3S)-3-amino-3-(methoxymethyl)pyrrolidin-1-yl]-5,6,7,8-tetrahydroquinolin-6-yl]-6-methylthieno[2,3-b]pyridine-2-carboxamide]",50 to 200 nM
10,"Cc1ccc2c(N)c(C(=O)N[C@H]3CCc4nc(N5C[C@@H]6COC[C@]6(N)C5)ccc4C3)sc2n1 [Example 394, N-[(6S)-2-[(3aR,6aS)-3a-amino-hexahydro-1H-furo[3,4-c]pyrrol-5-yl]-5,6,7,8-tetrahydroquinolin-6-yl]-3-amino-6-methylthieno[2,3-b]pyridine-2-carboxamide]",50 to 200 nM
11,"Cc1ccc2c(N)c(C(=O)N[C@H]3CCc4nc(N5C[C@H]6COC[C@@]6(N)C5)ccc4C3)sc2n1 [Example 395, N-[(6S)-2-[(3aS,6aR)-3a-amino-hexahydro-1H-furo[3,4-c]pyrrol-5-yl]-5,6,7,8-tetrahydroquinolin-6-yl]-3-amino-6-methylthieno[2,3-b]pyridine-2-carboxamide]",50 to 200 nM
12,"Cc1ccc2c(N)c(C(=O)N[C@H]3CCc4nc(N5C[C@H]6COC[C@@H](C5)[C@H]6N)ccc4C3)sc2n1 [Example 396, 3-amino-6-methyl-N-[(6S)-2-[(1R,5S,9r)-9-amino-3-oxa-7-azabicyclo[3.3.1]nonan-7-yl]-5,6,7,8-tetrahydroquinolin-6-yl]thieno[2,3-b]pyridine-2-carboxamide]",50 to 200 nM
13,"Cc1ccc2c(N)c(C(=O)N[C@H]3CCc4nc(N5C[C@H]6COC[C@@H](C5)[C@@H]6N)ccc4C3)sc2n1 [Example 397, 3-amino-6-methyl-N-[(6S)-2-[(1R,5S,9s)-9-amino-3-oxa-7-azabicyclo[3.3.1]nonan-7-yl]-5,6,7,8-tetrahydroquinolin-6-yl]thieno[2,3-b]pyridine-2-carboxamide]",50 to 200 nM
14,"Cc1ccc2c(N)c(C(=O)N[C@H]3CCc4nc(N5CC6(C[C@@H](N)CO6)C5)ccc4C3)sc2n1 [Example 398, 3-amino-N-[(6S)-2-[(7R)-7-amino-5-oxa-2-azaspiro[3.4]octan-2-yl]-5,6,7,8-tetrahydroquinolin-6-yl]-6-methylthieno[2,3-b]pyridine-2-carboxamide]",50 to 200 nM
15,"Cc1ccc2c(N)c(C(=O)N[C@H]3CCc4nc(N5CC6(C[C@H](N)CO6)C5)ccc4C3)sc2n1 [Example 399, 3-amino-N-[(6S)-2-[(7S)-7-amino-5-oxa-2-azaspiro[3.4]octan-2-yl]-5,6,7,8-tetrahydroquinolin-6-yl]-6-methylthieno[2,3-b]pyridine-2-carboxamide]",1 to 50 nM
16,"CCn1ccc2cc(C(=O)N[C@H]3CCc4nc(N5C[C@H](NC)[C@@H](OC)C5)ccc4C3)cnc21 [Example 402, 1-ethyl-N-[(6S)-2-[(3S,4S)-3-methoxy-4-(methylamino)pyrrolidin-1-yl]-5,6,7,8-tetrahydroquinolin-6-yl]-1H-pyrrolo[2,3-b]pyridine-5-carboxamide]",200 to 2000 nM
